For test [1], the species on record is Homo sapiens. Description: Selectivity ratio of Ki for Homo sapiens (human) recombinant GABAA alpha1beta3gamma2 receptor to Ki for Homo sapiens (human) recombinant GABAA alpha5beta3gamma2 receptor.
Test [2] addresses GABA-A receptor; alpha-6/beta-3/gamma-2 (Homo sapiens, UniProt P18507+P28472+Q16445). Put plainly: Displacement of [3H]-Ro 15-4513 from Homo sapiens (human) recombinant GABAA alpha6beta3gamma2 receptor expressed in Ltk- cells after 1 hr by liquid scintillation counting. It is filed as cell-based. A general note: In a radioligand displacement assay an active substance lowers the binding of a labelled ligand.

For test [3], the target named is T1, GABA-A receptor; alpha-5/beta-3/gamma-2 (Homo sapiens, UniProt P18507+P28472+P31644).
T1 sequence (P18507 whole entry): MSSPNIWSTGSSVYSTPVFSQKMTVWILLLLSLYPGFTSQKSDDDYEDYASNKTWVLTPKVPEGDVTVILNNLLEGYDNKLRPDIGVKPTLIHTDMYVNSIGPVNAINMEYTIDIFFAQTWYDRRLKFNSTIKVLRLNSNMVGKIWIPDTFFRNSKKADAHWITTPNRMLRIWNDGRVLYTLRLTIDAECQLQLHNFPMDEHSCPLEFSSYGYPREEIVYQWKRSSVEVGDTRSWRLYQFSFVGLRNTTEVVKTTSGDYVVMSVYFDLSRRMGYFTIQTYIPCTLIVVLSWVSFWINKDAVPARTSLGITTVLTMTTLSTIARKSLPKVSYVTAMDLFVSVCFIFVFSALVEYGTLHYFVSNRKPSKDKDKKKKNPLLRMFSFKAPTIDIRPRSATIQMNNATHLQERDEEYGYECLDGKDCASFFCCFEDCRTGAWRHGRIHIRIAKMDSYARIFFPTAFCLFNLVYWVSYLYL
T1 sequence (P28472 whole entry): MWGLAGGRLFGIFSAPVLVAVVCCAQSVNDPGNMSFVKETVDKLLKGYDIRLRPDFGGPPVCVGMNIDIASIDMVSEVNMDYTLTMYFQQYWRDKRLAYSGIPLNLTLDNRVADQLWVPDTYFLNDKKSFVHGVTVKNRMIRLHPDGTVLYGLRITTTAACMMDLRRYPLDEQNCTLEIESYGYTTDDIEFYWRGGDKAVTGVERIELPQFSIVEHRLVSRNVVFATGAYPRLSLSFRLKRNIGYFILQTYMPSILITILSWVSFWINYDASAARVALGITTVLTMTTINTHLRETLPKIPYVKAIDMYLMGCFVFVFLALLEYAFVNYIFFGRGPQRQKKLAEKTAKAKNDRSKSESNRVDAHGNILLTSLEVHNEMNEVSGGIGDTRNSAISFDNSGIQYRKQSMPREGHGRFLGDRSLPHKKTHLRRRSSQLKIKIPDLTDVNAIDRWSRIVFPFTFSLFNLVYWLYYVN
T1 sequence (P31644 whole entry): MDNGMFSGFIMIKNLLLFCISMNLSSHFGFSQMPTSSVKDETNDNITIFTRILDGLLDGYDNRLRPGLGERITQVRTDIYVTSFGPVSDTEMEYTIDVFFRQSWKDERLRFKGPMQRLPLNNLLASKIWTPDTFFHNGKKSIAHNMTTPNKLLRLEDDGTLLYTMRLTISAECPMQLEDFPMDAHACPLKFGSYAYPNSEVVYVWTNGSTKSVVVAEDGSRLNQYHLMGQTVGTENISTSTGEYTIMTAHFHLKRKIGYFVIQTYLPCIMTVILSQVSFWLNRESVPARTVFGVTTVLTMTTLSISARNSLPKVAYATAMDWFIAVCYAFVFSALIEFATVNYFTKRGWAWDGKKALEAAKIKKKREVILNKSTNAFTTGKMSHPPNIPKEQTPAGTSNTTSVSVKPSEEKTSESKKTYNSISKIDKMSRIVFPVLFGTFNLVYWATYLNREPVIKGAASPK
Description: Displacement of [3H]-Ro 15-1788 from Homo sapiens (human) recombinant GABAA alpha5beta3gamma2 receptor expressed in Ltk- cells after 1 hr by liquid scintillation counting. It is filed as cell-based.

Test [4] concerns the target GABA A receptor alpha-4/beta-3/gamma-2 (Homo sapiens, UniProt P18507+P28472+P48169). Description: Displacement of [3H]-Ro 15-4513 from Homo sapiens (human) recombinant GABAA alpha4beta3gamma2 receptor expressed in Ltk- cells after 1 hr by liquid scintillation counting. It is filed as cell-based.
Test [5] addresses T2, GABA-A receptor; alpha-3/beta-3/gamma-2 (Homo sapiens, UniProt P18507+P28472+P34903).
T2 sequence (P18507 whole entry): T1 sequence (P18507 whole entry)
T2 sequence (P28472 whole entry): T1 sequence (P28472 whole entry)
T2 sequence (P34903 whole entry): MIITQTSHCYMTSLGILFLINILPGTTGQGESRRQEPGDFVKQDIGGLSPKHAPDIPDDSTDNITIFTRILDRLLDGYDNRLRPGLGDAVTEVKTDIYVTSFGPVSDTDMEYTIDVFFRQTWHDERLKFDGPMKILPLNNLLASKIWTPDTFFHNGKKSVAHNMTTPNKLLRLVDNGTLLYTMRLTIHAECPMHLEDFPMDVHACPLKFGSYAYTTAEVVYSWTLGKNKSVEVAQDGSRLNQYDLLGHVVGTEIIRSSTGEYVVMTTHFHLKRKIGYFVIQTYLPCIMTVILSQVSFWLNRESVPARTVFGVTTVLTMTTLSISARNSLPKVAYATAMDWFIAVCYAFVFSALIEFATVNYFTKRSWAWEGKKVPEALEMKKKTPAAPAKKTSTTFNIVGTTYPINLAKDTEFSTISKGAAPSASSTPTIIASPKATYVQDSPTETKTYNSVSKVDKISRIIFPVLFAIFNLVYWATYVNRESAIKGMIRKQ
Description: Displacement of [3H]-Ro 15-1788 from Homo sapiens (human) recombinant GABAA alpha3beta3gamma2 receptor expressed in Ltk- cells after 1 hr by liquid scintillation counting. It is filed as cell-based.

For test [6], the target named is T3, GABA-A receptor; alpha-2/beta-3/gamma-2 (Homo sapiens, UniProt P18507+P28472+P47869).
T3 sequence (P18507 whole entry): T1 sequence (P18507 whole entry)
T3 sequence (P28472 whole entry): T1 sequence (P28472 whole entry)
T3 sequence (P47869 whole entry): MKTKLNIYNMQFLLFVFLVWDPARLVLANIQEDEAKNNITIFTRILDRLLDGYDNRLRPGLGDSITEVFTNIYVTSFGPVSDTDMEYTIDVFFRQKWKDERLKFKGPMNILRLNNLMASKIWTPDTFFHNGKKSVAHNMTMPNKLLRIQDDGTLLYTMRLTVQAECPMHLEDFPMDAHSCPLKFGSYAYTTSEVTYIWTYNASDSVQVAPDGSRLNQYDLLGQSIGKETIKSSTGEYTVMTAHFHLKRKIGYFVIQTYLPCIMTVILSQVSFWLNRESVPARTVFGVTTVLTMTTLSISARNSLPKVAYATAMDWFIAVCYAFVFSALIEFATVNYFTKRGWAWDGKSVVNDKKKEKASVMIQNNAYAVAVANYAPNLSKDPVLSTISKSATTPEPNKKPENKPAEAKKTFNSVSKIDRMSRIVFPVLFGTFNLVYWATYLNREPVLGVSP
Put plainly: Displacement of [3H]-Ro 15-1788 from Homo sapiens (human) recombinant GABAA alpha2beta3gamma2 receptor expressed in Ltk- cells after 1 hr by liquid scintillation counting. Type of test: cell-based.

In test [7] the target is T4, GABA-A receptor; alpha-1/beta-3/gamma-2 (Homo sapiens, UniProt P14867+P18507+P28472).
T4 sequence (P14867 whole entry): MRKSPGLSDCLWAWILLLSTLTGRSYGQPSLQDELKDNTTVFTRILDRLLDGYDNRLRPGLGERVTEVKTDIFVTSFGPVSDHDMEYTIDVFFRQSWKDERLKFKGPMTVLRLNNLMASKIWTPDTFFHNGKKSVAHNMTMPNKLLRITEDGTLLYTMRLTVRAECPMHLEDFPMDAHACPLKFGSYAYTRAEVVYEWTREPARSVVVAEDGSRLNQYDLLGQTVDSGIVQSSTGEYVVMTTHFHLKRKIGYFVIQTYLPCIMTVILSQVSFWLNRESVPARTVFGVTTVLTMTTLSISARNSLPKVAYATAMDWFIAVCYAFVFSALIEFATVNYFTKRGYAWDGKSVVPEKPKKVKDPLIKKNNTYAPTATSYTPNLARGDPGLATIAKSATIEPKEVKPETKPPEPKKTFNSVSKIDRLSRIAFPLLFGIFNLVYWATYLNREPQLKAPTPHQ
T4 sequence (P18507 whole entry): T1 sequence (P18507 whole entry)
T4 sequence (P28472 whole entry): T1 sequence (P28472 whole entry)
Description: Displacement of [3H]-Ro 15-1788 from Homo sapiens (human) recombinant GABAA alpha1beta3gamma2 receptor expressed in Ltk- cells after 1 hr by liquid scintillation counting. It is filed as cell-based.

The values that follow come from ChEMBL document CHEMBL3045465, “Development of Selective Ligands for Benzodiazepine Receptor Subtypes by Manipulating the Substituents at Positions 3- and 7- of Optically Active BzR Ligands” (Med Chem Res, 2004).

Structures are written as SMILES.

Chain of GABA A receptor alpha-4/beta-3/gamma-2 (P48169 whole entry, one chain of several): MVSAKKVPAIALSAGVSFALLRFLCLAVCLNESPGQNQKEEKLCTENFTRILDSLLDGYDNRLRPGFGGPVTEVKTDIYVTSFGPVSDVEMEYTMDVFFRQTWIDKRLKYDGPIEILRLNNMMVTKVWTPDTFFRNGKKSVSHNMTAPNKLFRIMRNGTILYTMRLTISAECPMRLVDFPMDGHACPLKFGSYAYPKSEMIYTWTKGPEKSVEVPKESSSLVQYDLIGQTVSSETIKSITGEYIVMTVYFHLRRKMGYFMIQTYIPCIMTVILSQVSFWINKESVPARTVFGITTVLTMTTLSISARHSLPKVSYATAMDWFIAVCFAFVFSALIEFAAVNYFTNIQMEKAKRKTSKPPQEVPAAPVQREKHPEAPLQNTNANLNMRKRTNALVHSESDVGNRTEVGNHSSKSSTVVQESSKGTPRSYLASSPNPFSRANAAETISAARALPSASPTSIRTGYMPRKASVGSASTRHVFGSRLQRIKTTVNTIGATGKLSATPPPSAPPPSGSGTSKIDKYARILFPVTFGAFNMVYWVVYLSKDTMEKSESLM
Chain of GABA-A receptor; alpha-6/beta-3/gamma-2 (Q16445 whole entry, one chain of several): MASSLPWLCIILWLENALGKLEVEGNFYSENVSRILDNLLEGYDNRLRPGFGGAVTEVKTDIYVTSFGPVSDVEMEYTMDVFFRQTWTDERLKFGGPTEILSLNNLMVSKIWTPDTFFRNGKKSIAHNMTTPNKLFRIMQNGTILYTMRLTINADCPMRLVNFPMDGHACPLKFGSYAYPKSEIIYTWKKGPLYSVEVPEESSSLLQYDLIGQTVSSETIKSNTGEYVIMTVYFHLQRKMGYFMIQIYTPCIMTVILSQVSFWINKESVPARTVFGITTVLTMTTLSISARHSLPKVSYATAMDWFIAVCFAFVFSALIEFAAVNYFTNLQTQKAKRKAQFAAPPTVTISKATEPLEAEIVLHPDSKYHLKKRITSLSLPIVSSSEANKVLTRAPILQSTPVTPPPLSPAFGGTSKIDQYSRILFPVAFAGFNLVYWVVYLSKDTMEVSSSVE

Usually Ki stands for a measure of affinity in units of concentration, obtained from inhibition or displacement. For `CC(C)(C)OC(=O)c1ncn2c1[C@@H]1CCCN1C(=O)c1cc(-c3cccs3)ccc1-2`, the Ratio Ki in test [1] was found to be 1.3. The Ki in test [2] was over 333 nM; in test [3], 12 nM; in test [4], 119 nM; in test [5], 123 nM; in test [6], 120 nM; in test [7], 16 nM.
